Experimental data as given in ChEMBL document CHEMBL1201862, “PubChem BioAssay data set” (2004).
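Step 1: Grow cells in 96-well plates. Step 2: Expose to compound for 48 hours at 5 concentrations. Step 3: Interpolate endpoints linearly; if unreached, use highest concentration. GI50 is the concentration that inhibits growth by half.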 The source made the active and inactive calls. Cut-off read from the data, not from the text of the source: active = GI50 up to about 1.1 µM and inactive = higher.

How the values were obtained:
Assay in all cases: NCI-60 cell line screen, 48 h
OVCAR-4 = test system: OVCAR-4
Malme-3M = test system: Malme-3M
IGROV-1 = test system: IGROV-1
NCI-H522 = test system: NCI-H522
SF-295 = test system: SF-295
K562 = test system: K562
SN12C = test system: SN12C
SK-MEL-5 = test system: SK-MEL-5
EKVX = test system: EKVX
TK-10 = test system: TK-10
SK-MEL-2 = test system: SK-MEL-2
A498 = test system: A498
M14 = test system: M14
COLO 205 = test system: COLO 205
LOX IMVI = test system: LOX IMVI
RPMI-8226 = test system: RPMI-8226

Measured: GI50

CCCC/C=C1\CCC(C)(CN(C)C)C1=O (stereo not given)
inactive: OVCAR-4 > 100 µM | Malme-3M > 100 µM | IGROV-1 > 100 µM | NCI-H522 28.9 µM | SF-295 > 100 µM | K562 > 100 µM | SN12C > 100 µM | SK-MEL-5 > 100 µM | EKVX > 100 µM | TK-10 > 100 µM | SK-MEL-2 > 100 µM | A498 > 100 µM | M14 > 100 µM

Cc1c(C)c2cc3c(=O)ccoc3c(C)c2oc1=O
inactive: Malme-3M > 100 µM | IGROV-1 39.8 µM | COLO 205 47 µM | NCI-H522 69.8 µM | SF-295 > 100 µM | K562 > 100 µM | SN12C 56.6 µM | SK-MEL-5 > 100 µM | EKVX > 100 µM | LOX IMVI 54 µM | TK-10 > 100 µM | SK-MEL-2 > 100 µM | A498 > 100 µM | M14 > 100 µM | RPMI-8226 > 100 µM

CCOc1ccc(NC(=O)CCc2nnc(SC)o2)cc1
inactive: OVCAR-4 > 100 µM | Malme-3M > 100 µM | IGROV-1 > 100 µM | COLO 205 > 100 µM | NCI-H522 > 100 µM | SF-295 > 100 µM | K562 > 100 µM | SN12C > 100 µM | SK-MEL-5 > 100 µM | EKVX > 100 µM | LOX IMVI > 100 µM | TK-10 > 100 µM | SK-MEL-2 > 100 µM | A498 > 100 µM | M14 > 100 µM

COc1ccc(/N=C/c2ccc(N(CCC#N)S(=O)(=O)c3ccccc3)cc2)cc1
inactive: OVCAR-4 > 100 µM | Malme-3M > 100 µM | IGROV-1 > 100 µM | COLO 205 > 100 µM | NCI-H522 > 100 µM | SF-295 > 100 µM | K562 68.1 µM | SN12C > 100 µM | SK-MEL-5 > 100 µM | EKVX > 100 µM | LOX IMVI > 100 µM | TK-10 > 100 µM | SK-MEL-2 > 100 µM | A498 > 100 µM | M14 > 100 µM | RPMI-8226 > 100 µM

O=C(Nc1c(O)[nH]c(=S)[nH]c1=O)c1ccccc1F
inactive: OVCAR-4 > 100 µM | Malme-3M > 100 µM | IGROV-1 > 100 µM | COLO 205 > 100 µM | NCI-H522 > 100 µM | SF-295 > 100 µM | K562 > 100 µM | SN12C > 100 µM | SK-MEL-5 > 100 µM | LOX IMVI > 100 µM | TK-10 > 100 µM | SK-MEL-2 > 100 µM | A498 > 100 µM | M14 > 100 µM | RPMI-8226 > 100 µM

O=C1C2C3C=C4c5ccccc5N(c5ccccc5)C4(C2C(=O)N1c1ccc(Br)cc1)[C@H]1C(=O)N(c2ccc(Br)cc2)C(=O)[C@@H]31 (stereo not given in full)
inactive: OVCAR-4 > 100 µM | Malme-3M > 100 µM | IGROV-1 > 100 µM | COLO 205 31.6 µM | NCI-H522 > 100 µM | SF-295 > 100 µM | K562 > 100 µM | SN12C > 100 µM | SK-MEL-5 > 100 µM | EKVX > 100 µM | LOX IMVI 87.9 µM | TK-10 89.3 µM | SK-MEL-2 > 100 µM | A498 > 100 µM | M14 43.4 µM | RPMI-8226 3.41 µM

CCCCCCCSCC1C(=O)C23C(O)C1CCC2C12COC3(O)C(O)C1C(C)(C)CCC2O (stereo not given)
inactive: OVCAR-4 11.8 µM | Malme-3M 14.1 µM | IGROV-1 17.9 µM | COLO 205 4.16 µM | NCI-H522 1.4 µM | SF-295 17.9 µM | K562 3.98 µM | SN12C 8.41 µM | SK-MEL-5 12.1 µM | EKVX 17.7 µM | LOX IMVI 13.3 µM | TK-10 15.9 µM | SK-MEL-2 14.8 µM | A498 11.5 µM | M14 12.2 µM | RPMI-8226 4.06 µM

CCSC1=CC(Cc2ccc(OC)cc2)N(C(=O)OC)C1 (stereo not given)
inactive: OVCAR-4 > 100 µM | Malme-3M > 100 µM | IGROV-1 > 100 µM | COLO 205 81.5 µM | NCI-H522 52.6 µM | SF-295 > 100 µM | K562 34.3 µM | SN12C > 100 µM | SK-MEL-5 49.4 µM | EKVX > 100 µM | LOX IMVI 36.3 µM | TK-10 > 100 µM | SK-MEL-2 97.7 µM | A498 > 100 µM | M14 > 100 µM

CCCCCCCCCCCCCCCCOC(=O)c1cc(O)cc(C(=O)OCCCCCCCCCCCCCCCC)c1
inactive: OVCAR-4 > 100 µM | Malme-3M > 100 µM | IGROV-1 > 100 µM | COLO 205 > 100 µM | NCI-H522 > 100 µM | SF-295 > 100 µM | K562 > 100 µM | SN12C > 100 µM | SK-MEL-5 > 100 µM | EKVX > 100 µM | LOX IMVI > 100 µM | TK-10 > 100 µM | SK-MEL-2 > 100 µM | A498 > 100 µM | M14 > 100 µM | RPMI-8226 > 100 µM

Cc1nc(C)c(C(=O)Nc2cccc3c2C(=O)NC3=O)cc1C(=O)Nc1cccc2c1C(=O)NC2=O
inactive: OVCAR-4 > 100 µM | Malme-3M > 100 µM | IGROV-1 > 100 µM | COLO 205 > 100 µM | NCI-H522 > 100 µM | SF-295 > 100 µM | K562 > 100 µM | SN12C > 100 µM | SK-MEL-5 > 100 µM | EKVX > 100 µM | LOX IMVI > 100 µM | TK-10 > 100 µM | SK-MEL-2 > 100 µM | A498 > 100 µM | M14 > 100 µM | RPMI-8226 > 100 µM

COC(=O)C12C34C=CC5(CCC6(C=CC1(CC3)O6)C52C(=O)OC)O4 (stereo not given)
inactive: OVCAR-4 > 100 µM | Malme-3M > 100 µM | IGROV-1 > 100 µM | COLO 205 > 100 µM | NCI-H522 > 100 µM | SF-295 > 100 µM | K562 > 100 µM | SN12C > 100 µM | EKVX > 100 µM | LOX IMVI > 100 µM | TK-10 > 100 µM | SK-MEL-2 > 100 µM | A498 93.3 µM

CC(C)S(=O)(=O)ON1C(=O)c2ccc([N+](=O)[O-])cc2C1=O
inactive: OVCAR-4 > 100 µM | Malme-3M > 100 µM | IGROV-1 > 100 µM | COLO 205 > 100 µM | NCI-H522 > 100 µM | SF-295 > 100 µM | K562 > 100 µM | SN12C > 100 µM | SK-MEL-5 > 100 µM | EKVX > 100 µM | TK-10 > 100 µM | SK-MEL-2 > 100 µM | A498 > 100 µM | M14 > 100 µM

COc1ccc2c(c1)CC[C@@H]1C2CC[C@]2(C)C(=O)NC(=O)CC12 (stereo not given in full)
inactive: Malme-3M > 100 µM | IGROV-1 > 100 µM | COLO 205 > 100 µM | NCI-H522 > 100 µM | SF-295 > 100 µM | K562 25.2 µM | SN12C > 100 µM | SK-MEL-5 78.3 µM | EKVX 84.1 µM | LOX IMVI > 100 µM | TK-10 > 100 µM | SK-MEL-2 > 100 µM | A498 > 100 µM | M14 > 100 µM | RPMI-8226 > 100 µM
